Experimental data published in patent US11174268B2, “Benzenesulfonamide compouds and their use as therapeutic agents” (Xenon Pharmaceuticals Inc., priority 2016, dated 2021).
Counter-ions that a name gives are not always drawn.

Assays:
[1] = target: T1, NaV1.6 (Homo sapiens (Human), UniProt Q9UQD0); experiment: Electrophysiological Assay (EP), patch voltage clamp, NaV1.6; format: cell-based; details: HEK-293 cells, whole-cell patch clamp;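 note: sodium current recorded at ambient temperature, channels held inactivated then briefly repolarized to −150 mV for 20 ms before a test pulse, control currents in 0.5% DMSO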
T1 sequence (Q9UQD0 whole entry): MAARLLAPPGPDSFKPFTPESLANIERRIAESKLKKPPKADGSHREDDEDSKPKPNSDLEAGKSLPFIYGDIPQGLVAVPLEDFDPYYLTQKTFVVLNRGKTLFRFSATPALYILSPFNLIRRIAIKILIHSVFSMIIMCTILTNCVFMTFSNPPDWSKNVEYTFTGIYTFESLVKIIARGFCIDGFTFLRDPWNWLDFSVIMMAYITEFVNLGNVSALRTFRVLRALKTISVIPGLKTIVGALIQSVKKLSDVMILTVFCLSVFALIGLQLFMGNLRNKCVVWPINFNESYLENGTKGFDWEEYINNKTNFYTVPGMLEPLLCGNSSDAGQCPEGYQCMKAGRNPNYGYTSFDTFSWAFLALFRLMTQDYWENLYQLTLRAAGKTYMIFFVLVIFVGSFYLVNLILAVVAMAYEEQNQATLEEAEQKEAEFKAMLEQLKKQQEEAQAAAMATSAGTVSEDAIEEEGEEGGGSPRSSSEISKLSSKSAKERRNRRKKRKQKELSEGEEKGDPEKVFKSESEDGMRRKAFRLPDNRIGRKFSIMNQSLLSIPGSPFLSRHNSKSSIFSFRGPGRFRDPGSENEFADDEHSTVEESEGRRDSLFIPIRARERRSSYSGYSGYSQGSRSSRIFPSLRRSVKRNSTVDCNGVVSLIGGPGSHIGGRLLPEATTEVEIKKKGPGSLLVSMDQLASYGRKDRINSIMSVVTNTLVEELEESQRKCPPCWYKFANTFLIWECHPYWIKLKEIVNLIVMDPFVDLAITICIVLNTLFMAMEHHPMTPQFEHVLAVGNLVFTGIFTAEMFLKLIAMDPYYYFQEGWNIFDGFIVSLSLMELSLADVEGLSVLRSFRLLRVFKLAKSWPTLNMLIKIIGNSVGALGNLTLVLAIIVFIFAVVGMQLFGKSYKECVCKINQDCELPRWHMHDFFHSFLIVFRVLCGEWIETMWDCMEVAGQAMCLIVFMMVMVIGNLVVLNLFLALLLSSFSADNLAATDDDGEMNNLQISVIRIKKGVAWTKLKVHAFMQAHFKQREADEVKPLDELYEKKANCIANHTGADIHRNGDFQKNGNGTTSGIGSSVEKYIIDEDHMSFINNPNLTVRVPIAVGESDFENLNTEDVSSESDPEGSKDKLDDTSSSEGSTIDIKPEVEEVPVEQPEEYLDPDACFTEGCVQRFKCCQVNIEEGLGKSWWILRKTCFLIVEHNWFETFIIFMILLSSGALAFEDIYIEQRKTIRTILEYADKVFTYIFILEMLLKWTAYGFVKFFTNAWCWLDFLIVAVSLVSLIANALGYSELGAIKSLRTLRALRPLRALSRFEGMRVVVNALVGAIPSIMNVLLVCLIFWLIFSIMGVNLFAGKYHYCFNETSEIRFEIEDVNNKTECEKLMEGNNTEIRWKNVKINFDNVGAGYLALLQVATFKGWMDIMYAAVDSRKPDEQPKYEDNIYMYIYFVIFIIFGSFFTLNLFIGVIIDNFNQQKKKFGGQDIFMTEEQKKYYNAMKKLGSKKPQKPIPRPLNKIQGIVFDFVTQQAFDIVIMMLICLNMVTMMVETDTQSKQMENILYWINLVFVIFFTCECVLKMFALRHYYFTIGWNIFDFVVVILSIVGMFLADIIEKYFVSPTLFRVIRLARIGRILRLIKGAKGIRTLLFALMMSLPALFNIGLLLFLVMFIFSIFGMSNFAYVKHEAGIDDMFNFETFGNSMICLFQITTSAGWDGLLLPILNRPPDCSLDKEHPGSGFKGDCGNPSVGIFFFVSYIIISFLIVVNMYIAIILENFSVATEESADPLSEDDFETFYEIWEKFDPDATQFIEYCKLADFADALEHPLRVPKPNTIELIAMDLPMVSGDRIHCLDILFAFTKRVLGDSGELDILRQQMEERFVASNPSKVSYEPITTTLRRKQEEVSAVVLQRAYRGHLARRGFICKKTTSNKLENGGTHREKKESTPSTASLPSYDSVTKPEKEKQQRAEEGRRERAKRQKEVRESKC

[2] = target: NaV1.5 (Homo sapiens (Human), UniProt Q14524); experiment: Sodium Influx Assay (Flux), NaV1.5; details: read-out: Flux NaV1.5 IC50; Trex HEK293 cells, ANG2 dye, inactivated state
NaV1.5, sequence (Q14524 other isoform, or with tags, fused parts or gaps): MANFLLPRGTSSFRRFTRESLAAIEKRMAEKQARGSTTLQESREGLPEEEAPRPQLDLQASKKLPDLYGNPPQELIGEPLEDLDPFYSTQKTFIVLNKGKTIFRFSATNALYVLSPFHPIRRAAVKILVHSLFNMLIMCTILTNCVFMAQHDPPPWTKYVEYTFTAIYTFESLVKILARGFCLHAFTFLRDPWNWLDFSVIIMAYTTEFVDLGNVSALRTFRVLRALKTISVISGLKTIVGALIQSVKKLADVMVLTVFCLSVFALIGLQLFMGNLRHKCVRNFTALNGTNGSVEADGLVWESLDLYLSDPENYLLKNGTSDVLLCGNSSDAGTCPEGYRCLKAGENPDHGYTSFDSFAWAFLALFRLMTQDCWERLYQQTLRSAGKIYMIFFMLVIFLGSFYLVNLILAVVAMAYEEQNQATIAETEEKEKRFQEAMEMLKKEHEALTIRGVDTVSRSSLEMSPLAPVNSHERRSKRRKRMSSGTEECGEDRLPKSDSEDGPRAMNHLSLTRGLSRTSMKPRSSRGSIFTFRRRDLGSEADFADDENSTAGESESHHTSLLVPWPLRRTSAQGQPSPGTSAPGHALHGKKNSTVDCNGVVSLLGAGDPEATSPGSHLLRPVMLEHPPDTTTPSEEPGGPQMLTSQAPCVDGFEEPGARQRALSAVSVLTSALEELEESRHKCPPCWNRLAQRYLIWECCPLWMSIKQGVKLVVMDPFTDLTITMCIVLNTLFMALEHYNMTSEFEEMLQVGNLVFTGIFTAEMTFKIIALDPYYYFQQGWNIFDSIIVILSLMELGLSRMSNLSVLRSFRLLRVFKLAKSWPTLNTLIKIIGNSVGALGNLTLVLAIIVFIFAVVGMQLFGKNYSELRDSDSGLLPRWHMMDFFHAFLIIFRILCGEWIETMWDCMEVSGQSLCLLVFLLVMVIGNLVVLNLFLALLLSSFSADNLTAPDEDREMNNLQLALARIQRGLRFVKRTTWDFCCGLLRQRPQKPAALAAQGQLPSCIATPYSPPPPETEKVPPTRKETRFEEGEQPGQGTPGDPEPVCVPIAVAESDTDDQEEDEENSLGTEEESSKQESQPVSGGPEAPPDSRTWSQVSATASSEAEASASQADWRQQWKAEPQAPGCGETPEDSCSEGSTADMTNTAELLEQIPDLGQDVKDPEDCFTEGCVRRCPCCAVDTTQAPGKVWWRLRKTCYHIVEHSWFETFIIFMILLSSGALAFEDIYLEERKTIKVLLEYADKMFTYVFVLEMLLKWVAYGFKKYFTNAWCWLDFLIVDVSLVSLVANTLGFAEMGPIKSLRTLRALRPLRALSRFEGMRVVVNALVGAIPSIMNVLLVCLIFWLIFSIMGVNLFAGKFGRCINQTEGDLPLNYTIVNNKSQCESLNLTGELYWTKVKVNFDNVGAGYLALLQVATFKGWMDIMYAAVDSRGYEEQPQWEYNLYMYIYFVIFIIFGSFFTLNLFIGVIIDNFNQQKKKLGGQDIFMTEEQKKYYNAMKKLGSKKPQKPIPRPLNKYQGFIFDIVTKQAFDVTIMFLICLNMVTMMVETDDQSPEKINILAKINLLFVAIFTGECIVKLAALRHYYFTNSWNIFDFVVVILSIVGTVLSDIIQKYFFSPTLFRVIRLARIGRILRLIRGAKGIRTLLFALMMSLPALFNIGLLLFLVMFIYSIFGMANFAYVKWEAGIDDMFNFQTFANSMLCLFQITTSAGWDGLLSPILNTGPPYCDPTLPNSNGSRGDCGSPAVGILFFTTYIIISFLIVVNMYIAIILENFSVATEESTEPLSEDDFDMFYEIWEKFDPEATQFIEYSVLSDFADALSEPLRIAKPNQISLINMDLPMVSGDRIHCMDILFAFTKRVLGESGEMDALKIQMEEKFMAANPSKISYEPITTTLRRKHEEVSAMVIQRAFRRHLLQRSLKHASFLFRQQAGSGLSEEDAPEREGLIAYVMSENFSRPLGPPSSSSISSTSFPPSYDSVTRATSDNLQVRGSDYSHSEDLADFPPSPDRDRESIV

[3] = target: T1, NaV1.6; experiment: Sodium Influx Assay (Flux), NaV1.6; format: cell-based; details: Trex HEK293 cells, ANG2 dye, inactivated state;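 note: Tetracycline-induced cells, compounds applied for one hour at room temperature with modulators holding channels open, IC50 from percent inhibition of sodium influx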
[4] = target: NaV1.1 (Homo sapiens (Human), UniProt P35498); experiment: Sodium Influx Assay (Flux), NaV1.1; format: cell-based; details: Trex HEK293 cells, ANG2 dye, inactivated state;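 note: channels co-expressed with human β1 subunit and held open by modulators, cells exposed to compounds for one hour at room temperature, IC50 from percent inhibition of influx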

Molecule	IC50 [1] [µM]	IC50 [2] [µM]	IC50 [3] [µM]	IC50 [4] [µM]
CC[C@H](Nc1ccc(S(=O)(=O)Nc2ncns2)cc1Cl)c1ccccc1 [Example 32, (S)-3-chloro-4-((1-phenylpropyl)amino)-N-(1,2,4-thiadiazol-5-yl)benzenesulfonamide]	0.023	12.8	0.092	1.06
CCC(Nc1cc(F)c(S(=O)(=O)Nc2ncns2)cc1F)c1ccccc1 (stereo not shown) [Example 85, 2,5-difluoro-4-((1-phenylpropyl)amino)-N-(1,2,4-thiadiazol-5-yl)benzenesulfonamide]	0.078	30	0.107	0.516
CCC(Nc1cc(F)c(S(=O)(=O)Nc2cccc(F)n2)cc1Cl)c1ccccc1 (stereo not shown) [Example 86, 5-chloro-2-fluoro-N-(6-fluoropyridin-2-yl)-4-((1-phenylpropyl)amino)benzenesulfonamide]	0.558	12.7	4.06	16.6
COC1(C)CN(Cc2cccc(F)c2CNc2cc(F)c(S(=O)(=O)Nc3cscn3)c(F)c2)C1 [Example 172, 2,6-difluoro-4-((2-fluoro-6-((3-methoxy-3-methylazetidin-1-yl)methyl)benzyl)amino)-N-(thiazol-4-yl)benzenesulfonamide formate]	0.023	30	0.078	25.8
O=S(=O)(Nc1ccsn1)c1c(F)cc(NCc2c(F)cccc2CN2CCC2)cc1F [Example 188, 4-((2-(azetidin-1-ylmethyl)-6-fluorobenzyl)amino)-2,6-difluoro-N-(isothiazol-3-yl)benzenesulfonamide 2,2,2-trifluoroacetate]	0.012	30	0.025	9.2
O=S(=O)(Nc1ccon1)c1c(F)cc(NCc2c(F)cccc2CN2CCC2)cc1F [Example 204, 4-((2-(azetidin-1-ylmethyl)-6-fluorobenzyl)amino)-2,6-difluoro-N-(isoxazol-3-yl)benzenesulfonamide 2,2,2-trifluoroacetate]	0.081	23.1	0.187	30
O=S(=O)(Nc1cscn1)c1ccc(NCc2c(F)ccc(F)c2CN2CCC2)c(F)c1F [Example 213, 4-((2-(azetidin-1-ylmethyl)-3,6-difluorobenzyl)amino)-2,3-difluoro-N-(thiazol-4-yl)benzenesulfonamide 2,2,2-trifluoroacetate]	0.021	30	0.156	30
O=S(=O)(Nc1cscn1)c1c(F)cc(NCc2c(F)ccc(F)c2CN2CCC2)c(F)c1F [Example 215, 4-((2-(azetidin-1-ylmethyl)-3,6-difluorobenzyl)amino)-2,3,6-trifluoro-N-(thiazol-4-yl)benzenesulfonamide 2,2,2-trifluoroacetate]	0.003	21.5	0.021	10.3
Cc1c(NCc2c(F)cccc2CN2CCC2)cc(F)c(S(=O)(=O)Nc2cscn2)c1F [Example 304, 4-((2-(azetidin-1-ylmethyl)-6-fluorobenzyl)amino)-2,6-difluoro-3-methyl-N-(thiazol-4-yl)benzenesulfonamide 2,2,2-trifluoroacetate]	0.002	21.2	0.008	5.3
Cc1c(NCc2ccccc2CN2CCC2)cc(F)c(S(=O)(=O)Nc2ccncn2)c1F [Example 310, 4-((2-(azetidin-1-ylmethyl)benzyl)amino)-2,6-difluoro-3-methyl-N-(pyrimidin-4-yl)benzenesulfonamide 2,2,2-trifluoroacetate]	0.011	30	0.01	20.3
O=S(=O)(Nc1cscn1)c1c(F)cc(NCc2ccccc2CCN2CC(F)(F)C2)cc1F [Example 319, 4-((2-(2-(3,3-difluoroazetidin-1-yl)ethyl)benzyl)amino)-2,6-difluoro-N-(thiazol-4-yl)benzenesulfonamide]		20	2.31	18
O=S(=O)(Nc1cscn1)c1c(F)cc(NCc2ccccc2CCN2CC(F)C2)cc1F [Example 320, 4-((2-(2-(3-fluoroazetidin-1-yl)ethyl)benzyl)amino)-2,6-difluoro-N-(thiazol-4-yl)benzenesulfonamide formate]		17.9	0.055	6.5
O=S(=O)(Nc1cscn1)c1cc(Cl)c(N[C@@H]2C[C@H](N3CCC3)c3ccccc32)cc1F [Example 321, 4-(((1R,3S)-3-(azetidin-1-yl)-2,3-dihydro-1H-inden-1-yl)amino)-5-chloro-2-fluoro-N-(thiazol-4-yl)benzenesulfonamide formate]		28.1	0.091	4.77
C=Cc1cc(S(=O)(=O)Nc2cscn2)c(F)cc1NCc1ccccc1CN1CCC1 [Example 323, 4-((2-(azetidin-1-ylmethyl)benzyl)amino)-2-fluoro-N-(thiazol-4-yl)-5-vinylbenzenesulfonamide formate]		15	0.518	9.38
O=S(=O)(Nc1cccc(F)n1)c1c(F)cc(NCc2ccccc2CN2CCC2)cc1F [Example 324, 4-((2-(azetidin-1-ylmethyl)benzyl)amino)-2,6-difluoro-N-(6-fluoropyridin-2-yl)benzenesulfonamide]		30	0.647	18.9
Cc1cc(S(=O)(=O)Nc2cccc(F)n2)c(F)cc1NCc1ccccc1CN1CCC1 [Example 329, 4-((2-(azetidin-1-ylmethyl)benzyl)amino)-2-fluoro-N-(6-fluoropyridin-2-yl)-5-methylbenzenesulfonamide]		28.4	0.214	8.12
O=S(=O)(Nc1nccs1)c1cc(Cl)c(N[C@H](c2ccccc2F)C(F)(F)F)cc1F [Example 332, (R)-5-chloro-2-fluoro-N-(thiazol-2-yl)-4-((2,2,2-trifluoro-1-(2-fluorophenyl)ethyl)amino)benzenesulfonamide]		7.24	0.275	0.831
CC1(F)CN(Cc2cccc(F)c2CNc2cc(F)c(S(=O)(=O)Nc3ccon3)c(F)c2)C1 [Example 337, 2,6-difluoro-4-((2-fluoro-6-((3-fluoro-3-methylazetidin-1-yl)methyl)benzyl)amino)-N-(isoxazol-3-yl)benzenesulfonamide formate]		30	0.266	14.3
CC[C@H](Oc1cc(F)c(S(=O)(=O)Nc2cscn2)cc1Cl)c1ccccc1F [Example 338, (S)-5-chloro-2-fluoro-4-(1-(2-fluorophenyl)propoxy)-N-(thiazol-4-yl)benzenesulfonamide]		2.65	1.62	5.71
(R)-5-chloro-2-fluoro-4-((1-(isoquinolin-8-yl)ethyl)amino)-N-(thiazol-2-yl)benzenesulfonamide [Example 13]		30	5.89	30
(S)-5-chloro-2-fluoro-4-((1-(isoquinolin-8-yl)ethyl)amino)-N-(thiazol-2-yl)benzenesulfonamide [Example 12]		30	1.98	30
